One test concerns the target T1, recombinant LOX III (Triticum aestivum, UniProt F1DTB8).
T1 construct: gene LOX3; full length, 878 residues, 95 kDa; codon-optimised; LOX III-2A-mClover3 in pGK423, S. cerevisiae BY4741; crude soluble extract
T1 sequence (F1DTB8 1-878): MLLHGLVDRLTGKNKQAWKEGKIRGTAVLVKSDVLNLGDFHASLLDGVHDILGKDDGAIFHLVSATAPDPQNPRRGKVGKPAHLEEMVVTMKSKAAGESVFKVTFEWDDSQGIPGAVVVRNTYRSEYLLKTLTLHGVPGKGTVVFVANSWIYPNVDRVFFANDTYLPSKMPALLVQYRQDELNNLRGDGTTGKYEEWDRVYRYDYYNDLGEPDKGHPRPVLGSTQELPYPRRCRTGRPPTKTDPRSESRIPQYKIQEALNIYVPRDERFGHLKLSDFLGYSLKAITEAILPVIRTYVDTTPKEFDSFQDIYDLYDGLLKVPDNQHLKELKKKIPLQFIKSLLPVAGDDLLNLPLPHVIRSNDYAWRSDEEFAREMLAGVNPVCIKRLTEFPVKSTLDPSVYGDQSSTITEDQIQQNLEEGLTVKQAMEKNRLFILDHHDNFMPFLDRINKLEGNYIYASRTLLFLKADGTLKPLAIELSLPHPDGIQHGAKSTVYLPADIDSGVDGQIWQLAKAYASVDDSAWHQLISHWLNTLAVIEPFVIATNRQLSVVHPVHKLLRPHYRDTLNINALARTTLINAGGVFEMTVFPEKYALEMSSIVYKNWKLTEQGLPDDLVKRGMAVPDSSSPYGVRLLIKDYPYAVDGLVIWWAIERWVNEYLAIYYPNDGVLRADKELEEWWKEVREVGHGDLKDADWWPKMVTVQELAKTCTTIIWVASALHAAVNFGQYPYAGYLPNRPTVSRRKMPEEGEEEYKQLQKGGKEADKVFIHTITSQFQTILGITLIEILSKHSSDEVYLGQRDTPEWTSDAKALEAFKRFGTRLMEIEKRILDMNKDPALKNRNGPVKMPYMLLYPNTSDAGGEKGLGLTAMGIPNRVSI
The test can be described thus: conjugated diene absorbance at […] nm, Lineweaver-Burk. The class given is biochemical. As to conditions: crude yeast extract in 50 mM phosphate pH 7.6 (extraction buffer); methods print linoleic acid range as 10 mM to 70 mM, conflicting with Km in µM.

A further test deals with T2, recombinant Mini-LOX III (Triticum aestivum, UniProt F1DTB8).
T2 construct: gene LOX3; cut placed by alignment to soybean Mini-LOX STPIEFHSFQ; pGK423, S. cerevisiae BY4741; crude soluble extract
T2 sequence (F1DTB8 343-878 limits assumed): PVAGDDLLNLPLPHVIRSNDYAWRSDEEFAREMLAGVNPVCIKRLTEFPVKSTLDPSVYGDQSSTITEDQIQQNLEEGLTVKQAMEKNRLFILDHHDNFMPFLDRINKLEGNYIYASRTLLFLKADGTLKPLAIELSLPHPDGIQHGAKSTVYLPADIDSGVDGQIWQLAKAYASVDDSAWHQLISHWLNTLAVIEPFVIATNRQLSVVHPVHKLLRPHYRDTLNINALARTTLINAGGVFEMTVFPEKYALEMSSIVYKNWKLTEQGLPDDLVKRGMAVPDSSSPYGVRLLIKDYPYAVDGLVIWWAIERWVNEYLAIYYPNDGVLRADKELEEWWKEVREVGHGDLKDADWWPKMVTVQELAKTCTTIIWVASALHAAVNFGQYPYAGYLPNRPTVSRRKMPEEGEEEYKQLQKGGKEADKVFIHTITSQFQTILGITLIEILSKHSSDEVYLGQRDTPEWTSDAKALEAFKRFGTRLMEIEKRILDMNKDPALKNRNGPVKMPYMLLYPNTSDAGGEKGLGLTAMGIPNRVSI
The description is as above. The class given is biochemical. The settings on record: crude yeast extract in 50 mM phosphate pH 7.6 (extraction buffer); methods print linoleic acid range as 10 mM to 70 mM, conflicting with Km in µM.

The term Km denotes the concentration of substrate that gives half-maximal velocity. Turning to `CCCCC/C=C\C/C=C\CCCCCCCC(=O)O` [linoleic acid], the Km was determined as 25.7 µM at recombinant LOX III and 21.3 µM at recombinant Mini-LOX III.

The values above are taken from publication PMC10847848, “Production of recombinant intact and N-terminal truncated lipoxygenase isozyme III expressed in Saccharomyces cerevisiae and its influence on glutenin polypeptides” (Food Chemistry: Molecular Sciences, 2024).
